Measurements: patent US20110319338A1, “PEPTIDES THAT BIND EUKARYOTIC TRANSLATION INITIATION FACTOR 4E” (The Board of Regents of the University of Texas System, priority 2008, published 2011)
Square brackets hold non-standard residues; d marks the D form. Ends that are not written are not given here.

System: ES-2-DualLuc cells
Assay: Cell-based translation assay with bicistronic R-Luc/F-Luc reporter
Details: peptide 6 hours, 0.3 to 10 micromoles per liter, relative to cells without peptide
Description: FIGS. 2A-2F. Inhibition of cap-dependent translation and cell growth by TAT-4EBP fusion peptides. (FIG. 2A) Representation of the pIRES-DualLuc bicistronic construct containing Renilla Luciferase (R-Luc) and firefly luciferase (F-Luc) genes. In (FIG. 2B), R-Luc and F-Luc activities were assayed in ES-2-DualLuc cells following treatment for 24 hours with rapamycin and for 3 hours with cycloheximide with the indicated concentrations of these drugs, and expressed relative to the respective luciferase activities in cells incubated without drug. Cell viability was not affected by rapamycin and cycloheximide under these conditions. In (FIG. 2C), R-Luc and F-Luc activities were assayed in ES-2-DualLuc cells following treatment for 6 hours with the indicated concentrations of peptides, and expressed relative to the respective luciferase activities in cells incubated without peptide. Shown are results of triplicate assays performed independently two times, and the statistical significance of differences in relative R-Luc and F-Luc activities in cells treated with peptide at a concentration of 10 micromoles per liter. (FIG. 2D) Viability of OVCAR-3 cells at 3 days after addition of the indicated concentrations of peptides, expressed relative to viability of cells incubated without peptide. Shown are results of triplicate assays performed in two independent experiments, and statistical significances of differences in viability of cells treated with TAT-4EBP1-WT vs. TAT-4EBP1-MT, and of cells treated with TAT-4EBP2-WT vs. TAT-4EBP2-MT at a concentration of 10 micromoles per liter. (FIG. 2E) OVCAR-3 cells at 3 days after peptide addition (10 micromoles per liter) viewed under phase-contrast microscopy. (FIG. 2F) Flow cytometric analysis of staining of terminal deoxynucleotidyl transferase-mediated dUTP nick end labeling (TUNEL) in OVCAR-3 cells at 3 days after peptide addition (10 micromoles per liter). Cells incubated for 3 days in the absence of peptide in medium with and without serum are included as controls.
FIGS. 3A-3H. Uptake, binding and inhibitory effects of [DLys6]GnRH-4EBP fusion peptides. (FIG. 3A) Sequences of [DLys6]GnRH, and wild-type and mutant 4EBP1 peptides fused to the agonist. (FIG. 3B) Western blot of GnRH-RI levels in OVCAR-3, ES-2, MDA-MB-231, BJ, HUVEC and SKOV3 cells. (FIG. 3C) Detection of biotinylated peptides in OVCAR-3 and SKOV3 by Texas Red-conjugated streptavidin at 16 hours after peptide addition (3 micromoles per liter). In (FIGS. 3D and 3E), biotinylated peptides were incubated with OVCAR-3 cell lysate as described in FIG. 1. In (FIG. 3D), peptide was pulled down using streptavidin-agarose. Precipitates (P) and supernatants (S) were analyzed by Western blot using eIF4E antibody. In (FIG. 3E), immunoprecipitation was performed using eIF4E antibody, and Western blot performed using eIF4G antibody. (FIG. 3F) R-Luc and F-Luc activities were assayed in ES-2-DualLuc cells at 6 hours after addition of the indicated concentrations of peptides, and are expressed relative to the respective luciferase activities in cells incubated without peptide. Shown are results of triplicate assays performed independently two times, and the statistical significance of differences in relative R-Luc and F-Luc activities in cells treated with peptide at a concentration of 10 micromoles per liter (FIG. 3G) Cells of GnRH-RI-positive and -negative lines were treated with the indicated concentrations of peptides. Viability at 3 days after peptide addition is expressed relative to viability of cells incubated with no peptide. Shown are results of triplicate assays performed in two independent experiments, and statistical significances of differences in viability of cells treated with wild-type vs. mutant [DLys6]GnRH-4EBP1 peptides at a concentration of 10 micromoles per liter. (FIG. 3H) ES-2 and parental SKOV3 cells at 3 days after peptide addition (30 micromoles per liter) viewed under phase-contrast microscopy. […]

In the case of “[DLys6]GnRH: GnRH agonist with a D-amino acid substitution at position 6; GnRH-RI-targeting moiety (QHWSY[dK]LRPG; not fully specified (residue 1, C-terminus); ends and bridges not checked)”, the “cap-dependent translation (R-Luc read-out)” value is reported as “not inhibited”.
